{
  "source": "paper PMC7367283",
  "about": "“A PIP2 substitute mediates voltage sensor-pore coupling in KCNQ activation” (Communications Biology, 2020)",
  "target": "CaV1.2 (Homo sapiens, UniProt Q13936)",
  "sequence (Q13936 whole entry)": "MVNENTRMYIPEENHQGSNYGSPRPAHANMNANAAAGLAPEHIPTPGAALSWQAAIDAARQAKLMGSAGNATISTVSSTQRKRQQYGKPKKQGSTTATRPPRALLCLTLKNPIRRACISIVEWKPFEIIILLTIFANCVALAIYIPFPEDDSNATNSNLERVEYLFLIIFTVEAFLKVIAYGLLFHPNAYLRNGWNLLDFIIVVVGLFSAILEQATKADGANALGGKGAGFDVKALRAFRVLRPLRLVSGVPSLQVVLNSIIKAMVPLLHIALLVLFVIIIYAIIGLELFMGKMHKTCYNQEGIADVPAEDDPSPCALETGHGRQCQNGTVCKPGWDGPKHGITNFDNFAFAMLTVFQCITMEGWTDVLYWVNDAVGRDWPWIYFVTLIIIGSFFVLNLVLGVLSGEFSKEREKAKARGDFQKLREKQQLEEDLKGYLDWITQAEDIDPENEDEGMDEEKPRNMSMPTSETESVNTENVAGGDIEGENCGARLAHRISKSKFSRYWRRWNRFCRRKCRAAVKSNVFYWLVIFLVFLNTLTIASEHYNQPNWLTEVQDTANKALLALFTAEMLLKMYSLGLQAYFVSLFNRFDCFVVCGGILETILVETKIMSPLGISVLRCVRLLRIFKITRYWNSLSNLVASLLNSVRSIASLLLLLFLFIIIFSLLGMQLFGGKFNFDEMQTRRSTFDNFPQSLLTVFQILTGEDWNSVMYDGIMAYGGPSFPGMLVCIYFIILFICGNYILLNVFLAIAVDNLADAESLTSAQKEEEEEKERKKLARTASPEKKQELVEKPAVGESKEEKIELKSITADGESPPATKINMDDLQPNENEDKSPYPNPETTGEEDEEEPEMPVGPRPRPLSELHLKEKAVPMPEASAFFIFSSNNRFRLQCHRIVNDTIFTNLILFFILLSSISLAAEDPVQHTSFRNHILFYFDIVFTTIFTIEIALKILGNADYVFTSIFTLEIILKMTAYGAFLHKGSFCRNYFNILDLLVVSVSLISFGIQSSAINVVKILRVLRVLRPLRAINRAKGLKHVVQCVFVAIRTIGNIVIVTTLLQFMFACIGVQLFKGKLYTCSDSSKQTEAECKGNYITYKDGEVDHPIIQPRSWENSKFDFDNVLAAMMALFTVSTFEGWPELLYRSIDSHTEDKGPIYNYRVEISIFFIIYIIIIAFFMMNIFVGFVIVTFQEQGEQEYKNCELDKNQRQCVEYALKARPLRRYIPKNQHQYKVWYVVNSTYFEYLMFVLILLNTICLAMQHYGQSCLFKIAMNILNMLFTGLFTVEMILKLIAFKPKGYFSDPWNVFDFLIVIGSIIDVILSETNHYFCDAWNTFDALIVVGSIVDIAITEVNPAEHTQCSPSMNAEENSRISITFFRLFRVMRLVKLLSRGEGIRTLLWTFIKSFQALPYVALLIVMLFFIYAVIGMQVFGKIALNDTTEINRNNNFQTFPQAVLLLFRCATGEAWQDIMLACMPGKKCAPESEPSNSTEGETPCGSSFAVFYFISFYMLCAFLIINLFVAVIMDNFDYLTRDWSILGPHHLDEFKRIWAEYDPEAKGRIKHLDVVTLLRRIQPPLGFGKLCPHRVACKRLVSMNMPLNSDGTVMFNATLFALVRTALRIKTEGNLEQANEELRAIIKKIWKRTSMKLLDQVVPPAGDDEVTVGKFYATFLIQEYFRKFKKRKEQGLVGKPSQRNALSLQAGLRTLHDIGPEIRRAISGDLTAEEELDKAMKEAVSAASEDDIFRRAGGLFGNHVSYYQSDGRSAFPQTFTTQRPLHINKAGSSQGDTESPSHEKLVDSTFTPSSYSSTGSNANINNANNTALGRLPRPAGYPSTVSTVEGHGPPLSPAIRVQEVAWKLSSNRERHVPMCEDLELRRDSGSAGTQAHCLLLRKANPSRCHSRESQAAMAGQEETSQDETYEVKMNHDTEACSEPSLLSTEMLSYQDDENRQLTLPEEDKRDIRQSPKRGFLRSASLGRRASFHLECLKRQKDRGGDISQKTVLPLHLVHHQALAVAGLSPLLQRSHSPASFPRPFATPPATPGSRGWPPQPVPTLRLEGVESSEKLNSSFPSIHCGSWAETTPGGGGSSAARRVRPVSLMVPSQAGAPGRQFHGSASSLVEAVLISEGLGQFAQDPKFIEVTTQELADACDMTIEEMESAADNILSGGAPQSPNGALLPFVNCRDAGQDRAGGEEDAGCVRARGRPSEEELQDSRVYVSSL",
  "sequence (Q02641 1-523 isoform Q02641-2 partner)": "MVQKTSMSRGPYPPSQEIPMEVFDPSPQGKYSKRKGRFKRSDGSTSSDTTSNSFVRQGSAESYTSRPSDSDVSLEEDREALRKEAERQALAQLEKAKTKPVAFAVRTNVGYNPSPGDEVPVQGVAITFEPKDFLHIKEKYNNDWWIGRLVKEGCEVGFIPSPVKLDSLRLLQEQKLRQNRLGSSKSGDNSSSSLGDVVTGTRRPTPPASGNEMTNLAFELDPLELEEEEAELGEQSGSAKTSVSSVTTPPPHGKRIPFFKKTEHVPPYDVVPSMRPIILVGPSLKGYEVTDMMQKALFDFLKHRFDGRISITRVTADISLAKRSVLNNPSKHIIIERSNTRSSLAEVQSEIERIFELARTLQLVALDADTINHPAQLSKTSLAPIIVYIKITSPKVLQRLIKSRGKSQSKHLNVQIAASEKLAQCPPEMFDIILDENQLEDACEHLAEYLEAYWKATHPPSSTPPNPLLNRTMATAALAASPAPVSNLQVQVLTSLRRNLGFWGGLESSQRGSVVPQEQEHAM",
  "sequence (P54289 25-956 partner limits assumed)": "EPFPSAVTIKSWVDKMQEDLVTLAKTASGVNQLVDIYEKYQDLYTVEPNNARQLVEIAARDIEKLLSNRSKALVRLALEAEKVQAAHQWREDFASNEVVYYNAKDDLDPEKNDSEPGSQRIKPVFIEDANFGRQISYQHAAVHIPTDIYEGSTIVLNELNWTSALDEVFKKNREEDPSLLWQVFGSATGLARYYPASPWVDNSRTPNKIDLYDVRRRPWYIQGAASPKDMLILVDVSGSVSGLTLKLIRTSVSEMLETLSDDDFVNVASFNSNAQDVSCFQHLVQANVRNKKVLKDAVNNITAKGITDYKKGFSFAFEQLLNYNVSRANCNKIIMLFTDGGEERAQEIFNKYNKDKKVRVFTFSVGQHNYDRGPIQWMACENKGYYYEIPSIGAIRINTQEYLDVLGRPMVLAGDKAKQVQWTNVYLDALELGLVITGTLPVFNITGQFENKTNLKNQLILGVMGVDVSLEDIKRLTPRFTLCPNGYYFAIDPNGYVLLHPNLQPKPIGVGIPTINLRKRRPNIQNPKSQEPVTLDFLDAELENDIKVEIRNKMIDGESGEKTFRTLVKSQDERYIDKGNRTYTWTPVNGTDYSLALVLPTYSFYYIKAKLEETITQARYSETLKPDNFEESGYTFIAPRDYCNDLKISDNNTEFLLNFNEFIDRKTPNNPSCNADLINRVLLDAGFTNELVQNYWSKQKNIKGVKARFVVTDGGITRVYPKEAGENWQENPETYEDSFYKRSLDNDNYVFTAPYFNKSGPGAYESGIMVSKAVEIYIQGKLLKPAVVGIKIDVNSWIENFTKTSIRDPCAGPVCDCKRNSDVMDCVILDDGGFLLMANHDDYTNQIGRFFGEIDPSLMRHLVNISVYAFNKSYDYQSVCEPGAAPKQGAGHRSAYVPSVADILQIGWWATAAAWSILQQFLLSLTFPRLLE",
  "sequence (P54289 957-1103 partner limits assumed)": "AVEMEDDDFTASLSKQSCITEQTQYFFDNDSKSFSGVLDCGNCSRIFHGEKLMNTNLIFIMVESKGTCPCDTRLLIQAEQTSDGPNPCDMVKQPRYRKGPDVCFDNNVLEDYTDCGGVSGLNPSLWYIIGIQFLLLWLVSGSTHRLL",
  "experiment": "Two-electrode voltage clamp of CaV1.2 in Xenopus oocytes",
  "type": "cell-based",
  "details": "10 µM CP1",
  "text": "Since CP1 has a similar effect to PIP2 in mediating VSD-pore coupling in KCNQ channels, we tested if CP1 has effects on other ion channels that are also sensitive to PIP2 or are voltage activated and share general structural features of the VSD and the pore with KCNQ. […] On the other hand, NaV1.5 and KV4.2 are voltage-gated ion channels.\nFig. 6 Effects of CP1 on other ion channels expressed in Xenopus oocytes. a Currents of Kir1.1, CaV1.2, NaV1.5, hERG, and KV4.2 before and after application of 10 µM CP1, respectively. The voltages for holding, test, and returning pulses were Kir1.1, 0 mV, −100 to +60 mV, 0; CaV1.2, −100 mV, −100 to +60, −100 mV; NaV1.5, −100, −120 to +40 mV, −120 mV; hERG, −80 mV, −90 to +60 mV, −60 mV; KV4.2, −80 mV, −100 mV to +80 mV, −40 mV; HCN4, −30 mV, −30 to −140 mV, −120 mV. b Current–voltage relations of Kir1.1 channel in the absence or presence of 10 µM CP1 (n = 7). c–g G–V relations of indicated channels with and without 10 µM CP1. The ΔV1/2 of G–V relations (mV) are CaV1.2, 3.38 ± 0.71 mV (c); NaV1.5, −2.26 ± 0.95 mV (d); hERG, 6.85 ± 1.81 mV (e); KV 4.2, −2.26 ± 2.88 mV (f); HCN4, 17.13 ± 1.59 mV (g).\nComplementary DNA (cDNA) encoding human KCNQ1 (UniProtKB/Swiss‐Prot under accession no. P51787), KCNQ2 (O43526), KCNQ3 (O43525), KCNE1 (P15382), Kir1.1 (P48048), hERG (Q12809), KV4.2 (Q63881), NaV1.5 (Q14524), NaV β1 (Q07699), CaV1.2 (Q13936), CaV β1a (Q02641), CaV α2/δ1 (P54289), and HCN4 (Q9Y3Q4) were subcloned into oocyte expression vectors, respectively. Site-directed mutations of the KCNQ1 channel were all produced by overlap extension polymerase chain reaction (PCR) with high-fidelity Pfu polymerase (Stratagene, CA). The presence of the desired mutation was verified by sequencing the PCR-amplified regions. All the primer sequences used in this study are available in Supplementary Table 1. The complementary RNA (cRNA) of all these channels and mutations was transcribed in vitro with the T3, T7, or SP6 polymerase mMessage mMachine kit (Invitrogen, Thermo Fisher Scientific, MO).\nThe use of Xenopus laevis to obtain oocytes was approved by the Washington University Animal Studies Committee (protocol #20190030). Oocytes were manually dispersed and digested with collagenase (0.5 mg/ml, Sigma-Aldrich, Saint Louis, MO) to remove the follicle cell layer. Stage V or VI oocytes were selected and injected with cRNAs (9.2 ng) of channel or mutations. Especially, to characterize IKs, a mix of cRNAs at a molar ratio 4:1 (KCNQ1:KCNE1) was injected. For KCNQ2/KCNQ3, the molar ratio was 1:1 (KCNQ2:KCNQ3). For sodium channels, a 3:1 molar ratio (β1:NaV1.5) and for calcium channels a weight ratio 1:1:1 (β1:α2/δ1:CaV1.2) was injected, respectively. Injected oocytes were incubated in ND96 solution containing (in mM) 96 NaCl, 2 KCl, 1.8 CaCl2, 1 MgCl2, and 5 HEPES, pH 7.6, supplemented with 2.5 mM Na pyruvate and 1% penicillin–streptomycin, at 18 °C for 3–7 days before recording.\nThe whole-oocyte ionic currents were recorded with a GeneClamp 500B amplifier (Axon Instruments, CA) or iTEV90 amplifier (HEKA, Germany) and then sampled at 1 kHz and low-pass-filtered at 2 kHz. The Patchmaster software (HEKA, Germany) was used to acquire data. The Kir1.1 current was recorded with a high K^+ bath solution containing (in mM) 96 KCl, 4 NaCl, 1 CaCl2, 2 MgCl2, and 10 HEPES, pH 7.3–7.4. The HCN4 current was recorded in ND66 solution containing (in mM) 66 NaCl, 32 KCl, 1.8 CaCl2, 1 MgCl2, and 5 HEPES, pH 7.6. All the other potassium channels were recorded in ND96 solution. The currents of CaV1.2 channel were recorded in 40 mM Ba^2+ bath solution containing (in mM) 40 Ba(OH)2, 50 TEA-OH, 2 KOH, and 5 HEPES, adjusted to pH 7.4 with methanesulfonic acid. CP1 (DISODIUM 5-BROMO-2-[9-CHLORO-3-(SULFONATOOXY) NAPHTHO [1,2-B] THIEN-2-YL]-1H-INDOL-3-YL SULFATE, Sigma-Aldrich, MO) and Chromanol 293B (Sigma-Aldrich, MO) were dissolved in bath solutions. All the chemicals were purchased from Sigma-Aldrich. […]",
  "data": [
    {"smiles": "O=S(=O)([O-])Oc1c(-c2sc3c(ccc4cccc(Cl)c43)c2OS(=O)(=O)[O-])[nH]c2ccc(Br)cc12.[Na+].[Na+]", "note": "[CP1, DISODIUM 5-BROMO-2-[9-CHLORO-3-(SULFONATOOXY) NAPHTHO [1,2-B] THIEN-2-YL]-1H-INDOL-3-YL SULFATE]", "values": [
      {"measurement": "ΔV1/2 of G–V relations", "result": "3.38 ± 0.71", "unit": "mV"},
      {"measurement": "G/Gmax Mean (Fig. 6c)", "setting": "voltage 0 mV", "result": 0.1903},
      {"measurement": "G/Gmax Mean (Fig. 6c)", "setting": "voltage 10 mV", "result": 0.4214},
      {"measurement": "G/Gmax Mean (Fig. 6c)", "setting": "voltage 20 mV", "result": 0.7222},
      {"measurement": "G/Gmax Mean (Fig. 6c)", "setting": "voltage 30 mV", "result": 0.9242},
      {"measurement": "G/Gmax Mean (Fig. 6c)", "setting": "voltage 40 mV", "result": 1.0000},
      {"measurement": "G/Gmax Mean (Fig. 6c)", "setting": "voltage -10 mV", "result": 0.0690},
      {"measurement": "G/Gmax Mean (Fig. 6c)", "setting": "voltage -20 mV", "result": 0.0228},
      {"measurement": "G/Gmax Mean (Fig. 6c)", "setting": "voltage -30 mV", "result": 0.0102},
      {"measurement": "G/Gmax Mean (Fig. 6c)", "setting": "voltage -40 mV", "result": 0.0076},
      {"measurement": "G/Gmax Mean (Fig. 6c)", "setting": "voltage -50 mV", "result": 0.0080},
      {"measurement": "G/Gmax Mean (Fig. 6c)", "setting": "voltage -60 mV", "result": 0.0090},
      {"measurement": "G/Gmax Mean (Fig. 6c)", "setting": "voltage -70 mV", "result": 0.0102},
      {"measurement": "G/Gmax Mean (Fig. 6c)", "setting": "voltage -80 mV", "result": 0.0108},
      {"measurement": "G/Gmax Mean (Fig. 6c)", "setting": "voltage -90 mV", "result": 0.0176},
      {"measurement": "G/Gmax Mean (Fig. 6c)", "setting": "voltage -100 mV", "result": 0.0169}
    ]}
  ]
}
